Experimental data from US20080146555A1, “Uses of Kinase Inhibitors and Compositions Thereof” (GPC Biotech, Inc, priority 2004, published 2008).
Where “and” joins values, the source holds several entries; their conditions need not be identical. Identical values can stand only once.

Columns and labels:
[1] = test system: CEM/C2; assay: SRB cytotoxicity, camptothecin resistant cells; format: cell-based, human
Protocol: (§1) In these experiments, the P-glycoprotein expressing NCI-Adr resistant subline (Vickers et al., 1989. Mol Endocrinology 3 (1):157-164) was used. […] Briefly, cells were plated in 96 well dishes 24 hours prior to compound addition. Where noted, they were exposed to verapamil for 4 hours prior to compound addition and then throughout the treatment period (72 hours). The assay was terminated with the addition of cold TCA to a final concentration of 10% and the plates were incubated for one hour at 4° C. The plates were then washed 5 times with water and 100 μl of a Sulforhodamine B solution (4%) was added to each well. The plate was then incubated for 10 minutes at room temperature before removal of unbound dye by washing with 1% acetic acid.
(§2) The Camptothecin resistant CEM/C2 cells were derived from the T lymphoblastoid leukemia cell line CCRF/CEM by selection in the presence of Camptothecin in vitro (Kapoor et al., 1995. Oncology Research 7; 83-95, ATCC).
(§3) The effects of A37 and B16 were evaluated in the CCRF/CEM and CEM/C2 cells using the same SRB assay as described above, with 72-hour drug exposure.

[2] = test system: CEM; assay: SRB cytotoxicity, CEM parental cells; format: cell-based; conditions: Homo sapiens, CCRF-CEM, 72 h
Protocol: as §1, §2, §3

[3] = test system: A129; assay: SRB cytotoxicity, A129 parental cells; format: cell-based, human; conditions: 72 h
Protocol: as §1
The parental non-mutated cell line A129 was used as a control.

[4] = test system: A129 cp80; assay: SRB cytotoxicity, cisplatin resistant cells; format: cell-based, human
[5] = test system: NCI panel of 60 cell lines; assay: cells; conditions: Homo sapiens, 60 cell, 48 h, read-out: NCI panel MG-MID (Mean-Graph Mid-point, average IC50 over panel), 48 h, SRB; IC50 <10 nM counted as 10 nM
Text: (§4) The evaluation of compounds at the National Cancer Institute in their panel of 60 cell lines provides a wealth of information regarding efficacy in a wide range of tumor types and genetic backgrounds. Included within this panel are cell lines derived from leukemia, melanoma and cancers of the lung, colon, brain, ovary, breast, prostate and kidney. Use of this panel provides a measure of the efficacy of compounds in cells with alterations in many genes that are associated with neoplastic transformation including p53 and Her2/Neu as well as those involved in metabolism and those which confer multi-drug resistance. The data generated in these cell lines with the protocol described below can be used to evaluate the activity of compounds.
(§5) Cells were grown in RPMI-1640 10% FCS and plated in 96 well micro-titer plates at densities ranging from 5,000 to 40,000 cells/well. The plates were incubated for 24 hours at 37° C., 5% CO2 for 24 hours. Media containing twice the desired final concentration of the compound (5 doses spanning 4 logs) was prepared and 100 μl was added to each well containing 100 μl media plus cells to yield the desired final concentration. The plates were then incubated for an additional 48 hours.
(§6) The effect of the compound on cellular viability was determined with the Sulforhodamine B (SRB) assay, which measures total protein. Cells were fixed with cold TCA to a final concentration of 10% and incubated at 4° C. for 60 minutes. The supernatant was discarded and the plates were washed five times with water and air-dried. SRB solution at […] in 1% acetic acid was added to each well and the plates were incubated for 10 minutes at room temperature. The plates were washed five times with 1% acetic acid and air-dried. The bound stain was solubilized with 10 mM trizma base and the absorbance was read on a plate reader at […].

[6] = target: protein kinase C (mixed isozymes); assay: Protein kinase C TCA precipitation assay; format: biochemical, rat; conditions: Table 3; read-out: PKC IC50
Protocol: Enzymes: Cdc2/cyclin B was obtained from commercial sources. Cdk2/his-cyclin Eshort was expressed in Sf9 cells. Cdk2/cyclin A, cdk4/cyclin D1, and cdk6/cyclin D2 were expressed in Sf9 cells. Protein kinase A (catalytic subunit, from bovine heart) and protein kinase C (mixed isozymes from rat brain) were obtained from commercial sources.
Protein kinase C and protein kinase A were assayed using a TCA precipitation assay with Histone H1 as a substrate. For protein kinase A, the final assay contained 50 mM Tris, 10 mM MgCl2, 1 mM dithiothreitol, pH 7.5, 12 μM adenosine triphosphate, 10% (v/v) dimethylsulfoxide (from compounds), 20 μg Histone H1, 2 μCi [γ-^32P] adenosine triphosphate, 0.2 U protein kinase A in a 100 μL assay. A protein kinase C assay contained 50 mM Tris, 10 mM MgCl2, 1 mM dithiothreitol, 0.8 mM CaCl2, pH 7.5, 5 μM adenosine triphosphate, 10% (v/v) dimethylsulfoxide (from compounds), 20 μg Histone H1, 2 μCi [γ-^32P] adenosine triphosphate, 0.01 U protein kinase C in a 50 μL assay. The assays were started by the addition of enzyme, allowed to react for 10 min at 30° C., and stopped by adding 0.4 volumes of 237 mM disodium ethylenediamine tetraacetate, 105 mM adenosine triphosphate, pH 8.0. […] The filters were washed ten times with 25% (w/v) trichloroacetic acid, and the amount of incorporated [^32P]phosphate was determined by adding 100 μl Microscint and scintillation counting.

[7] = test system: adriamycin resistant cell line (ADR-res); assay: NCI panel, adriamycin resistant cell line, SRB assay; format: cell-based; conditions: Homo sapiens, 48 h
Text: as §4, §5, §6

[8] = test system: HCT-116 cells; assay: Calcein AM viability assay, HCT-116; format: cell-based; conditions: Homo sapiens
Protocol: (§7) The potency of the subject kinase inhibitors, as measured by loss of cellular viability, was determined with the Calcein AM assay (Molecular Probes). Calcein AM is a substrate of intracellular esterases, which is cleaved only in viable cells to generate a fluorescent product that can be quantified with a fluorescent plate reader. The fluorescent signal is proportional to the number of viable cells, and thus loss of signal in response to the exposure of cells to the subject kinase inhibitors correlates with a loss of viability. This assay not only distinguishes cell cycle arrest, in which cells may still by viable, from loss of viability, and is thus well suited for the evaluation of the subject kinase inhibitors. A compound that is a potent cytotoxic agent may cause significant loss of cell viability in such an assay.
(§8) Cellular IC50's were determined in the human colorectal carcinoma cell line, HCT-116, and the normal human fibroblast, IMR90. Protein adjusted IC50's were also determined in HCT-116. Results of such viability assays are presented in Table 2 (HCT-116 (viability/protein adjusted) and IMR-90). IC50's (μM, non-protein adjusted) for the viability assay against HCT-116 cells are shown for further compounds of the invention in Table 4.
(§9) HCT-116 or IMR90 cells were recovered from sub-confluent plates by trypsinization and 1,000 or 4,000 cells, respectively, were plated in 24-well dishes and incubated overnight at 37° C., 5% CO2. HCT-116 cells were cultured in RPMI-1640, 10% FCS, and IMR90 cells were cultured in Minimum Essential Medium-alpha, 10% FCS. After overnight incubation to allow adherence, the media was aspirated from each well and replaced with media containing a test compound at a concentration from 0 to 250 nM, spanning a total of 7 doses. The plates were returned to the incubator and cultured for an additional 72 hours (3 days). […] After 72-hours incubation with the test compound, the cells were washed twice with 1×PBS, taking special care to remove all residual buffer.
(§10) A 5 μM Calcein AM solution was prepared by dissolving a 50 μg aliquot of Calcein (Molecular Probes catalog #C3100) in 50 μl DMSO. After the Calcein had completely dissolved (10 minutes at room temperature), it was diluted into 10 ml PBS. Calcein/PBS (0.5 ml) was added to each well. The plates were incubated for 75 minutes at 37° C. (protected from light) and the fluorescent signal was read on a fluorescent plate reader (excitation 485/20 and emission 530/25).

[9] = test system: HCT-116 cells; assay: Clonogenic survival assay with HCT-116 cells; format: cell-based; conditions: Homo sapiens
Protocol: This assay was used to determine the concentration of a compound that results in irreversible loss of viability after a specified period of exposure. Essentially, cells are exposed to compound for a period of […], and are then transferred to compound-free growth medium. After continued incubation in the compound-free medium for a number of days, the number of colonies recovered is counted as an estimate of the number of surviving cells.
Media (RPMI-1640, 10% FCS, pen/strep) was pre-warmed to 37° C. in a water bath. Cells were incubated and grown at 37° C., 5% CO2. Cells were recovered by trypsinization from sub-confluent plates and counted using a hemocytometer. 1×10^4 cells were plated in 25 mls of media in a 15 cm tissue culture dish. […] were set up for each test compound, and were incubated overnight at 37° C. The compound was diluted into media at 7 concentrations and the media on the cells was replaced with that containing the test compound. Two plates were set up for each concentration of the compound to be tested, as well as two control plates without compound. Plates were incubated as above for […], media was removed and replaced with fresh media, and the plates were incubated an additional 7 days and washed with PBS. Colonies were stained with crystal violet solution (0.4% crystal violet, 20% ethanol) for 5 minutes, washed twice with distilled water, and counted.

[10] = test system: normal human fibroblast, IMR90; assay: Calcein AM viability assay, IMR90; format: cell-based; conditions: IMR-90, Calcein AM, 72 h
Protocol: as §7, §8, §9, §10

[11] = target: CDKs; assay: Kinase panel, CDKs (average/range); format: biochemical; conditions: comparison drug; read-out: average IC50 for CDK1, CDK2, and CDK4
[12] = test system: HT29/mit; assay: SRB cytotoxicity, mitoxanthrone resistant cells; format: cell-based, human
Protocol: as §1, with “acid. The bound dye was solubilized with 10 mM Trizma base and the absorbance read at OD570.” for “acid.”
(§11) The parental non-mutated cell line HT29 was used as a control.
(§12) Z. Cytotoxicity was measured using the SRB assay according to Shekan et al. as described above in Example 1A.

[13] = test system: HT29; assay: SRB cytotoxicity, HT29 parental cells; format: cell-based; conditions: Homo sapiens, HT-29, 72 h
Protocol: as §1, §11, §12

[14] = test system: 1A9; assay: SRB cytotoxicity, 1A9 parental cells; format: cell-based; conditions: Homo sapiens, 72 h
Protocol: as §1
(§13) The tubulin mutated, paclitaxel-resistant human ovarian carcinoma cell line 1A9-PTX10 and its parental paclitaxel-sensitive cell line 1A9 were derived from the A2780 human ovarian carcinoma cell line (J Biol Chem (1997) 272, 17118-17124).

[15] = test system: NCI-Adr resistant; assay: SRB cytotoxicity, P-glycoprotein expressing cells with and without verapamil; format: cell-based; conditions: Homo sapiens, NCI/ADR-RES, 72 h, SRB
Protocol: as §1

[16] = test system: 1A9-PTX10; assay: SRB cytotoxicity, tubulin mutated paclitaxel-resistant cells; format: cell-based, human; conditions: Homo sapiens, 1A9/ptx-10; 72 h, SRB
Protocol: as §1, §13

With `CC[C@@]1(O)C(=O)OCc2c1cc1n(c2=O)Cc2cc3ccccc3nc2-1` [Camptothecin, reference compound] the “RR (relative resistance) CEM/C2 vs CEM” value [1] was 1378, the IC50 ([1]; Homo sapiens, CEM/C2, 72 h, SRB) was 4820 nM and the IC50 [2] was 3.5 nM.

`N.N.[Cl][Pt][Cl]` [Cisplatin, cis-diamminedichloroplatinum (II), reference compound] was tested, and the IC50 [3] was 324 nM, the “RR (relative resistance) A129 cp80 vs A129” value [4] was 51.6 and the IC50 ([4]; 72 h, SRB) was 16700 nM.

For `CC(C)N1CCN(CCOc2ccc(-c3[nH]nc4c3C(=O)c3c(NC(=O)NN5CCOCC5)cccc3-4)cc2)CC1` [E], the IC50 [5] was under 100 nM, the IC50 [6] was under 10000 nM and the IC50 [7] was under 1000 nM. For the same compound, the IC50 ([8]; HCT-116, 72 h, Calcein AM, 72 h, read-out: HCT-116 IC50 Viability) was under 100 nM, the IC50 ([8]; HCT-116, plus 1 mg/ml alpha acidic glycoprotein and 45 mg/ml human serum albumin, read-out: HCT-116 IC50 Protein adjusted) was under 1000 nM and the IC50 ([9]; 24 h exposure, read-out: HCT-116 IC50 Clonogenic 24 h) was under 100 nM. For the same compound, the IC50 ([9]; 72 h exposure, read-out: HCT-116 IC50 Clonogenic 72 h) was under 100 nM and the IC50 [10] was under 100 nM.

`CN1CC[C@H](c2c(O)cc(O)c3c(=O)cc(-c4ccccc4Cl)oc23)[C@H](O)C1` [Flavopiridol, reference compound] was tested, and the IC50 [11] was ~650 nM and 650 nM.

For `O=C1c2c(O)ccc(O)c2C(=O)c2c(NCCNCCO)ccc(NCCNCCO)c21` [Mitoxanthrone, reference compound], the “RR (relative resistance) HT29/mit vs HT29” value [12] was 153.1, the IC50 ([12]; Homo sapiens, HT-29, 72 h, SRB) was 188000 nM and the IC50 [13] was 1230 nM.

Work on `CC(=O)O[C@@]12CO[C@@H]1C[C@H](O)[C@@]1(C)C(=O)[C@H](O)C3=C(C)[C@@H](OC(=O)[C@H](O)[C@@H](NC(=O)OC(C)(C)C)c4ccccc4)C[C@@](O)([C@@H](OC(=O)c4ccccc4)[C@H]21)C3(C)C` [Taxotere, N-debenzoyl-N-tert-butoxycarbonyl-10-deacetyl paclitaxel, reference compound] yielded an IC50 [14] of 1.75 nM, an IC50 ([15]; verapamil 12.5 μg/ml) of 36.3 nM and an IC50 ([15]; without verapamil) of 3310 nM. The IC50 [16] was 160 nM.
